Test results: paper PMC9267955, “Antidiabetic, Antiglycation, and Antioxidant Activities of Ethanolic Seed Extract of Passiflora edulis and Piceatannol In Vitro” (Molecules, 2022)
Marks after values point to notes of the source that are not given here.

How the values were obtained:
[1] = tested on: BSA/MGO fluorescent AGEs; experiment: Inhibition of AGE formation, intermediate stage of glycation (BSA/MGO); assay type: biochemical, bovine; conditions: BSA/MGO model
Procedure: The BSA-MGO assay was based on those described before, with some modifications. This experiment is based on the formation of fluorescent AGEs from the middle stage of protein glycation. MGO (1.5 mM) and BSA (3 mg/mL) were dissolved separately in 0.05 M phosphate buffer (pH 7.4) containing NaCl (100 mM) and NaN3 (0.02% w/v). Then, 300 μL of MGO was incubated with samples at different concentrations (dissolved in a buffer containing 60% ethanol) for an hour at 37 °C, in the dark, with constant stirring. After BSA (3 mg/mL) was added to the reaction mixture and incubation time was extended to 48 h at 37 °C in darkness. The rest of the procedure was the same as that for the BSA-glucose/fructose model that is described above. The percentage of the AGE inhibition and IC50 was calculated as described in Section 3.3.1.

[2] = tested on: BEAS-2B cells; experiment: MTS cell viability assay; assay type: cell-based, human; conditions: 100 µg/mL (409 µM); 24 h
Procedure: (§1) BEAS-2B, MCF10-A, and AML-12, cells were purchased from the American Tissue Type Culture Collection (ATCC; CRL-9609, CRL-10317, and CRL-2254) and cultured with a specific medium. BEAS-2B cells were cultured with LHC-9 media at 37 °C in an incubator with 5% CO2. […] Cells were grown to around 70% confluence on the culture flask, and passages (<10) were employed for all experimental conditions. MTS Cell Titer 96™ aqueous cell proliferation assay was used to determine cell viability. […] For that, 1 × 10^4 cells were plated on a 96-well plate with a growth medium of 100 μL/well. […] Fifteen microliters of MTS reagent (with PMS) was then added to each well and incubated for 3 h in the dark. Absorbance was recorded at 490 nm using a microplate reader (Infinite® 200 PRO, TECAN, Männedorf, Switzerland). For each experiment, cells with DMSO media served as control, and cells with only culture medium and MTS reagent served as the blank.

[3] = MTS cell viability assay; assay type: cell-based; conditions: human, MCF-10A cells, up to 100 µg/mL
Procedure: as §1

[4] = tested on: db/db mice; design: method as in PMID 25832644; conditions: PIC supplementation; cited from earlier work

## Oc1cc(O)cc(/C=C/c2ccc(O)c(O)c2)c1 [PIC, 3,3′,4′,5-trans-tetrahydroxystilbene]
[1]
  Antiglycation IC50, MGO: 67.4 ± 4.6 ^b μg/mL
[2]
  Reduction of cell viability of BEAS-2B cells: approximately 50%
[3]
  viability at 24 h: > 80%
[4]
  Fasting blood glucose, db/db mice: reduced fasting blood glucose
